From patent US11939314B2, “Quinolin-2-one derivatives” (MERCK PATENT GMBH, priority 2016, dated 2024)

Key:
PDGFRalpha(V561D) = molecular target: T1, PDGFRalpha(V561D) (Homo sapiens, UniProt P16234, V561D); test: PDGFRalpha(V561D) assay; type: biochemical; conditions: recombinant human PDGFRalpha aa 550-end, 200 μM ATP, 1.4E-06 means 1.4×10^−6, read-out: Inhibition (IC50) of PDGFRα (V561D)
T1 construct: recombinant human PDGFRalpha, amino acids 550end containing the V561 D mutation; 6His (N)
Summary of the method: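 Radiometric filter-binding assay: substrate phosphorylation by recombinant N-His-tagged human PDGFRα 550-end V561D was quenched with 3% phosphoric acid after 40 min at room temperature, then counted.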

c-Kit(V654A) = molecular target: T2, c-Kit(V654A) (Homo sapiens, UniProt P10721, V654A); test: c-Kit(V654A) assay; type: biochemical; conditions: recombinant human c-Kit aa 544-end, 200 μM ATP, 1.4E-06 means 1.4×10^−6, read-out: Inhibition (IC50) of c-KIT (V654A)
T2 construct: amino acids 544-end containing the V654A mutation; GST (N)
T2 sequence (P10721 544-976 V654A): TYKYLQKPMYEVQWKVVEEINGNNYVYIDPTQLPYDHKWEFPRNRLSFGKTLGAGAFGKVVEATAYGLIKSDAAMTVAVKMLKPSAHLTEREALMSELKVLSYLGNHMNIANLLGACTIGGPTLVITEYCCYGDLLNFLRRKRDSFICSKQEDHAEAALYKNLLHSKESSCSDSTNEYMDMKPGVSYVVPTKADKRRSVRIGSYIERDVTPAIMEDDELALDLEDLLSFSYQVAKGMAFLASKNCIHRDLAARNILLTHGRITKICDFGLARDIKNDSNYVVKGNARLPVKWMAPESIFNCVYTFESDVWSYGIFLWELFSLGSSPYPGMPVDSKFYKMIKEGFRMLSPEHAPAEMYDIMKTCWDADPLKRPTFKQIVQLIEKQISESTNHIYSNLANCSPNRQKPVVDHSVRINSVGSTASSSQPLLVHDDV
Summary of the method: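 Radiometric filter-binding read-out: substrate 33P incorporation counted by scintillation after P30 filtermat washes in 75 mM phosphoric acid and methanol. Enzyme: N-GST recombinant human c-Kit aa 544-end carrying V654A.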

T1 sequence (P16234 550-1089 V561D): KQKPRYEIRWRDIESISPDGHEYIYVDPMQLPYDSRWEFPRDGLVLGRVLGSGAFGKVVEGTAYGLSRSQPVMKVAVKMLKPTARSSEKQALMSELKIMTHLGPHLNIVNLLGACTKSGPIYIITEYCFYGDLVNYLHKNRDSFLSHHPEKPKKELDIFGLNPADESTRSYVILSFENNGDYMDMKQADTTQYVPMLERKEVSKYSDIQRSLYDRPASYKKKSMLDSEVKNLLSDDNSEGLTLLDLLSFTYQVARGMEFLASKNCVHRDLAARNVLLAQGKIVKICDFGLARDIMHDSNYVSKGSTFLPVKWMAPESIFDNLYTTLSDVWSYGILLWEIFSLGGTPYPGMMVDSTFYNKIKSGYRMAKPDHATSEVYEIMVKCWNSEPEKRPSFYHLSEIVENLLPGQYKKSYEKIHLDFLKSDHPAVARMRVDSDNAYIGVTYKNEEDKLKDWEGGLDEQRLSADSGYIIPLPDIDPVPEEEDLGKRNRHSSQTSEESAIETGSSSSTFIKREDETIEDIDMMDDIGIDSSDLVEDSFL

Row | SMILES | IC50 (PDGFRalpha(V561D)) [nM] | IC50 (c-Kit(V654A)) [nM]
1 | CCN(CC)CCNC(=O)c1ccc(-n2cc(-c3cc4cc(F)ccc4[nH]c3=O)nn2)cc1 [A196, N-(2-diethylamino-ethyl)-4-[4-(6-fluoro-2-oxo-1,2-dihydro-quinolin-3-yl)-[1,2,3]triazol-1-yl]-benzamide] | 110 | 44
2 | O=C(c1ccc(-n2cc(-c3cc4cc(F)ccc4[nH]c3=O)nn2)cc1)N1CCC[C@H]1CO [A197, 6-fluoro-3-{1-[4-((S)-2-hydroxymethyl-pyrrolidine-1-carbonyl)-phenyl]-1H-[1,2,3]triazol-4-yl}-1H-quinolin-2-one] | 32 | 28
3 | COC[C@@H]1CCN(C(=O)c2ccc(-n3cc(-c4cc5cc(F)ccc5[nH]c4=O)nn3)cc2)C1 [A199, 6-fluoro-3-{1-[4-((R)-3-methoxymethyl-pyrrolidine-1-carbonyl)-phenyl]-1H-[1,2,3]triazol-4-yl}-1H-quinolin-2-one] | 22 | 16
4 | COC[C@@H]1CCN(C(=O)c2ccc(-n3cc(-c4cc5cc(F)c(F)cc5[nH]c4=O)nn3)cc2)C1 [A200, 6,7-difluoro-3-{1-[4-((R)-3-methoxymethyl-pyrrolidine-1-carbonyl)-phenyl]-1H-[1,2,3]triazol-4-yl}-1H-quinolin-2-one] | 140 | 180
5 | COC[C@H]1CCN(C(=O)c2ccc(-n3cc(-c4cc5cc(F)c(F)cc5[nH]c4=O)nn3)cc2)C1 [A201, 6,7-difluoro-3-{1-[4-((S)-3-methoxymethyl-pyrrolidine-1-carbonyl)-phenyl]-1H-[1,2,3]triazol-4-yl}-1H-quinolin-2-one] | 92 | 97
6 | COC[C@H]1CCN(C(=O)c2ccc(-n3cc(-c4cc5cc(F)ccc5[nH]c4=O)nn3)cc2)C1 [A202, 6-fluoro-3-{1-[4-((S)-3-methoxymethyl-pyrrolidine-1-carbonyl)-phenyl]-1H-[1,2,3]triazol-4-yl}-1H-quinolin-2-one] | 16 | 57
7 | CCN(CC)CCOC1CCN(C(=O)c2ccc(-n3cc(-c4cc5cc(F)ccc5[nH]c4=O)nn3)cc2)C1 (centres unmarked) [A203, 3-(1-{4-[3-(2-diethylamino-ethoxy)-pyrrolidine-1-carbonyl]-phenyl}-1H-[1,2,3]triazol-4-yl)-6-fluoro-1H-quinolin-2-one] | 490 | 36
8 | O=C(c1ccc(-n2cc(-c3cc4cc(F)ccc4[nH]c3=O)nn2)cc1)N1CCC2(CCOC2)C1 (centres unmarked) [A204, 6-fluoro-3-{1-[4-(2-oxa-7-aza-spiro[4.4]nonane-7-carbonyl)-phenyl]-1H-[1,2,3]triazol-4-yl}-1H-quinolin-2-one] | 110 | 55
9 | O=C(c1ccc(-n2cc(-c3cc4cc(F)ccc4[nH]c3=O)nn2)cc1)N1CCC2(COC2)C1 [A205, 6-fluoro-3-{1-[4-(2-oxa-6-aza-spiro[3.4]octane-6-carbonyl)-phenyl]-1H-[1,2,3]triazol-4-yl}-1H-quinolin-2-one] | 94 | 36
10 | O=C(c1ccc(-n2cc(-c3cc4cc(F)ccc4[nH]c3=O)nn2)cc1)N1CCC(CO)C1 (centres unmarked) [A206, 6-fluoro-3-{1-[4-(3-hydroxymethyl-pyrrolidine-1-carbonyl)-phenyl]-1H-[1,2,3]triazol-4-yl}-1H-quinolin-2-one] | 48 | 24
11 | CN(C)C1CCN(C(=O)c2ccc(-n3cc(-c4cc5cc(F)ccc5[nH]c4=O)nn3)cc2)C1 (centres unmarked) [A207, 3-{1-[4-(3-dimethylamino-pyrrolidine-1-carbonyl)-phenyl]-1H-[1,2,3]triazol-4-yl}-6-fluoro-1H-quinolin-2-one] | 310 | 52
12 | O=C(c1ccc(-n2cc(-c3cc4cc(F)ccc4[nH]c3=O)nn2)cc1)N1CCC(N2CCC(O)CC2)C1 (centres unmarked) [A208, 6-fluoro-3-(1-{4-[3-(4-hydroxy-piperidin-1-yl)-pyrrolidine-1-carbonyl]-phenyl}-1H-[1,2,3]triazol-4-yl)-1H-quinolin-2-one] | 180 | 18
13 | O=C(c1ccc(-n2cc(-c3cc4cc(F)ccc4[nH]c3=O)nn2)cc1)N1CCC(OCCN2CCOCC2)C1 (centres unmarked) [A209, 6-fluoro-3-(1-{4-[3-(2-morpholin-4-yl-ethoxy)-pyrrolidine-1-carbonyl]-phenyl}-1H-[1,2,3]triazol-4-yl)-1H-quinolin-2-one] | 580 | 53
14 | COCCOC[C@@H]1CCN(C(=O)c2ccc(-n3cc(-c4cc5cc(F)ccc5[nH]c4=O)nn3)cc2)C1 [A210, 6-fluoro-3-(1-{4-[(R)-3-(2-methoxy-ethoxymethyl)-pyrrolidine-1-carbonyl]-phenyl}-1H-[1,2,3]triazol-4-yl)-1H-quinolin-2-one] | 300 | 46
15 | COCCN(C)C(=O)c1ccc(-n2cc(-c3cc4cc(F)ccc4[nH]c3=O)nn2)cc1 [A211, 4-[4-(6-fluoro-2-oxo-1,2-dihydro-quinolin-3-yl)-[1,2,3]triazol-1-yl]-N-(2-methoxy-ethyl)-N-methyl-benzamide] | 85 | 190
16 | COCCN(C)C(=O)c1ccc(-n2cc(-c3cc4cc(F)c(F)cc4[nH]c3=O)nn2)cc1 [A212, 4-[4-(6,7-difluoro-2-oxo-1,2-dihydro-quinolin-3-yl)-[1,2,3]triazol-1-yl]-N-(2-methoxy-ethyl)-N-methyl-benzamide] | 160 | 1300
17 | O=C(c1ccc(-n2cc(-c3cc4cc(F)ccc4[nH]c3=O)nn2)cc1)N1CCOC[C@H]1CO [A213, 6-fluoro-3-{1-[4-((R)-3-hydroxymethyl-morpholine-4-carbonyl)-phenyl]-1H-[1,2,3]triazol-4-yl}-1H-quinolin-2-one] | 37 | 65
18 | O=C(c1ccc(-n2cc(-c3cc4cc(F)ccc4[nH]c3=O)nn2)cc1)N1CCCCC1CO (centres unmarked) [A214, 6-fluoro-3-{1-[4-(2-hydroxymethyl-piperidine-1-carbonyl)-phenyl]-1H-[1,2,3]triazol-4-yl}-1H-quinolin-2-one] | 79 | 72
19 | COC[C@@H]1CCCN1C(=O)c1ccc(-n2cc(-c3cc4cc(F)ccc4[nH]c3=O)nn2)cc1 [A215, 6-fluoro-3-{1-[4-((S)-2-methoxymethyl-pyrrolidine-1-carbonyl)-phenyl]-1H-[1,2,3]triazol-4-yl}-1H-quinolin-2-one] | 220 | 64
20 | O=C(c1ccc(-n2cc(-c3cc4cc(F)ccc4[nH]c3=O)nn2)cc1)N1CCOC[C@@H]1CO [A216, 6-fluoro-3-{1-[4-((S)-3-hydroxymethyl-morpholine-4-carbonyl)-phenyl]-1H-[1,2,3]triazol-4-yl}-1H-quinolin-2-one] | 29 | 52
21 | COC[C@@H]1CC[C@@H](COC)N1C(=O)c1ccc(-n2cc(-c3cc4cc(F)ccc4[nH]c3=O)nn2)cc1 [A217, 3-{1-[4-((2S,5S)-2,5-bis-methoxymethyl-pyrrolidine-1-carbonyl)-phenyl]-1H-[1,2,3]triazol-4-yl}-6-fluoro-1H-quinolin-2-one] | 46 | 350
22 | COC[C@H]1CC[C@H](COC)N1C(=O)c1ccc(-n2cc(-c3cc4cc(F)ccc4[nH]c3=O)nn2)cc1 [A218, 3-{1-[4-((2R,5R)-2,5-bis-methoxymethyl-pyrrolidine-1-carbonyl)-phenyl]-1H-[1,2,3]triazol-4-yl}-6-fluoro-1H-quinolin-2-one] | 59 | 64
23 | COC[C@@H]1CC[C@@H](COC)N1C(=O)c1ccc(-n2cc(-c3cc4cc(F)c(F)cc4[nH]c3=O)nn2)cc1 [A219, 3-{1-[4-((2S,5S)-2,5-bis-methoxymethyl-pyrrolidine-1-carbonyl)-phenyl]-1H-[1,2,3]triazol-4-yl}-6,7-difluoro-1H-quinolin-2-one] | 320 | 1600
24 | COC[C@H]1CC[C@H](COC)N1C(=O)c1ccc(-n2cc(-c3cc4cc(F)c(F)cc4[nH]c3=O)nn2)cc1 [A220, 3-{1-[4-((2R,5R)-2,5-bis-methoxymethyl-pyrrolidine-1-carbonyl)-phenyl]-1H-[1,2,3]triazol-4-yl}-6,7-difluoro-1H-quinolin-2-one] | 500 | 980
25 | O=C(c1ccc(-n2cc(-c3cc4cc(F)c(F)cc4[nH]c3=O)nn2)cc1)N1CCC(OCCN2CCOCC2)C1 (centres unmarked) [A221, 6,7-difluoro-3-(1-{4-[3-(2-morpholin-4-yl-ethoxy)-pyrrolidine-1-carbonyl]-phenyl}-1H-[1,2,3]triazol-4-yl)-1H-quinolin-2-one] | 380 | 200
26 | Cc1cc2[nH]c(=O)c(-c3cn(-c4ccc(C(=O)N5CCN(C)CC5)cc4)nn3)cc2cc1F [A222, 6-fluoro-7-methyl-3-{1-[4-(4-methyl-piperazine-1-carbonyl)-phenyl]-1H-[1,2,3]triazol-4-yl}-1H-quinolin-2-one] | 210 | 72
27 | COCCOC[C@@H]1CCN(C(=O)c2ccc(-n3cc(-c4cc5cc(F)c(F)cc5[nH]c4=O)nn3)cc2)C1 [A223, 6,7-difluoro-3-(1-{4-[(R)-3-(2-methoxy-ethoxymethyl)-pyrrolidine-1-carbonyl]-phenyl}-1H-[1,2,3]triazol-4-yl)-1H-quinolin-2-one] | 410 | 350
28 | O=C(c1ccc(-n2cc(-c3cc4cc(F)ccc4[nH]c3=O)nn2)cc1)N1CCC(OCCN2CCCC2)C1 (centres unmarked) [A224, 6-fluoro-3-(1-{4-[3-(2-pyrrolidin-1-yl-ethoxy)-pyrrolidine-1-carbonyl]-phenyl}-1H-[1,2,3]triazol-4-yl)-1H-quinolin-2-one] | 280 | 70
